Results published in PubChem BioAssay (NCI).
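Method: 48-hour compound exposure of cells in 96-well plates, five concentrations, linear interpolation of endpoints. At the GI50, growth is halved. Definition used: TGI = concentration required for complete inhibition of growth.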

What was measured:
Assay in all cases: NCI-60 cell line screen, 48 h
CAKI-1 renal = tested on: CAKI-1 renal
EKVX NSCLC = tested on: EKVX NSCLC
HT29 colon = tested on: HT29 colon
MOLT-4 leukemia = tested on: MOLT-4 leukemia
NCI-H460 lung = tested on: NCI-H460 lung
OVCAR-5 ovarian = tested on: OVCAR-5 ovarian
SF-295 CNS = tested on: SF-295 CNS
SF-539 CNS = tested on: SF-539 CNS
SNB-75 CNS = tested on: SNB-75 CNS
SW-620 colon = tested on: SW-620 colon

Row | SMILES | GI50 (CAKI-1 renal) | TGI (CAKI-1 renal) | GI50 (EKVX NSCLC) | TGI (EKVX NSCLC) | GI50 (HT29 colon) | TGI (HT29 colon) | GI50 (MOLT-4 leukemia) | TGI (MOLT-4 leukemia) | GI50 (NCI-H460 lung) | TGI (NCI-H460 lung) | GI50 (OVCAR-5 ovarian) | TGI (OVCAR-5 ovarian) | GI50 (SF-295 CNS) | TGI (SF-295 CNS) | GI50 (SF-539 CNS) | TGI (SF-539 CNS) | GI50 (SNB-75 CNS) | TGI (SNB-75 CNS) | GI50 (SW-620 colon) | TGI (SW-620 colon)
1 | CS(=O)(=O)c1nccc(-c2c(-c3cccc(OCc4ccccc4)c3)nc3sccn23)n1 | 4.58 µM | > 100 µM | 26.4 µM | > 100 µM | > 41.2 µM | > 100 µM | 1.64 µM | > 100 µM | > 83.5 µM | > 100 µM | > 100 µM | > 100 µM | > 100 µM | > 100 µM | > 60.4 µM | > 100 µM | > 28.5 µM | > 100 µM | 4.67 µM | > 100 µM
2 | COc1ccc(C(=O)OC2C(OC3C(O)COC(O[C@H]4C[C@H]5[C@@H]6CC=C7C[C@@H](O)CC[C@]7(C)[C@H]6CC[C@]5(C)[C@H]4[C@H](C)C(=O)CCC(C)C)C3OC(=O)C(C)C)OCC(O)C2O)cc1 (stereo not given in full) | 0.0172 µM | 1.64 µM | 0.0163 µM | 3.87 µM | 0.0507 µM | 4.85 µM | 0.00649 µM | 0.0192 µM | 0.0108 µM | 0.538 µM | 0.204 µM | 5.22 µM | < 0.00275 µM | 0.00385 µM | < 0.00275 µM | 0.0289 µM | 0.00698 µM | 4.9 µM | 0.0125 µM | 0.389 µM
3 | Cc1ccc2oc(=O)cc(CC(=O)O)c2c1 |  | > 100 µM |  | > 100 µM |  | > 100 µM |  | > 100 µM |  | > 100 µM |  | > 100 µM |  | > 100 µM |  | > 100 µM |  | > 100 µM |  | > 100 µM
4 | C=C(c1ccc(OC)c(/C=C/C(=O)c2cc(OC)c(OC)c(OC)c2)c1)c1cc(OC)c(OC)c(OC)c1 | 1.28 µM | 10.5 µM | 2.23 µM | 9.74 µM | 0.628 µM | 3.15 µM | 1.61 µM | 27 µM | 1.44 µM | 3.54 µM | 2.07 µM | 6.14 µM | 2.9 µM | 14.9 µM | 1.41 µM | 3.05 µM | 0.892 µM | 7.08 µM | 0.6 µM | 2.38 µM
5 | Oc1ccccc1/C=N/Nc1nc2ccccc2s1 | 2.95 µM | > 100 µM | 8.73 µM | > 100 µM | 21.1 µM | > 100 µM | 4.4 µM | > 100 µM | 3.41 µM | > 100 µM | > 100 µM | > 100 µM | 5.3 µM | > 100 µM | 4.67 µM | > 100 µM | 6.55 µM | 32.2 µM | 16.3 µM | > 100 µM
6 | N=C(N)c1ccc(CS(=O)(=O)F)cc1 | > 100 µM | > 100 µM | > 100 µM | > 100 µM | > 100 µM | > 100 µM | > 100 µM | > 100 µM | > 100 µM | > 100 µM | > 100 µM | > 100 µM | > 100 µM | > 100 µM | > 100 µM | > 100 µM | > 100 µM | > 100 µM | > 100 µM | > 100 µM
7 | CCOC(=O)C1Nc2ccc([N+](=O)[O-])cc2[C@H]2OCC[C@@H]12 (stereo not given in full) |  | > 100 µM |  | > 100 µM |  | > 100 µM |  | > 100 µM |  | > 100 µM |  | > 100 µM |  | > 100 µM |  | > 100 µM |  | > 100 µM |  | > 100 µM
8 | COC1=CC(=O)c2c(O)c3c(c(O)c2C1=O)OC1(Oc2c(cc4cc(C)oc(=O)c4c2O)CC1O)C3O (stereo not given) |  | 53.9 µM |  | 57 µM |  | > 100 µM |  | > 100 µM |  | 67.8 µM |  | > 100 µM |  | > 100 µM |  | > 100 µM |  | > 100 µM |  | > 100 µM
9 | Cc1cc(NCCCNc2ccnc3cc(Cl)ccc23)nc(Nc2ccc(C(=O)N3CCCCC3)cc2)n1 | 2.51 µM | 7.38 µM | 3.65 µM | 16 µM | 2.33 µM | 7.2 µM | 2.86 µM | 13.5 µM | 2.7 µM | 7.63 µM | 4.5 µM | 18.5 µM | 2.02 µM | 3.89 µM | 1.89 µM | 3.56 µM | 1.69 µM | 3.69 µM | 2.12 µM | 4.52 µM
10 | CC(C)COC(=O)N1N=NC2C3CC(=O)C(O3)C21 (stereo not given) |  | > 100 µM |  | > 100 µM |  | > 100 µM |  | > 100 µM |  | > 100 µM |  | > 100 µM |  | > 100 µM |  | > 100 µM |  | > 100 µM |  | > 100 µM
11 | C=C(c1ccccc1)[C@@]1(O)CCCC[C@H]1NC(c1ccccc1)c1ccccc1 |  | 21.4 µM |  | 43.7 µM |  | 27.3 µM |  | 8.24 µM |  | 28 µM |  | 27 µM |  | 25.1 µM |  | 32.7 µM |  | 63.6 µM |  | 32.8 µM
